Experimental data from patent publication US11535610B2, “Acid addition salts of benzimidazole derivative” (HK INNO.N CORPORATION, priority 2016, dated 2022).
Like-named read-outs stand apart in the source and are kept apart here.

What was measured:
[1] = Comparative test on liquid-phase stability (HPLC, degradation product of formula 4); format: physicochemical; conditions: for Concentration (%) of degradation product (compound of the formula 4), Initial / Concentration (%) of degradation product (compound of the formula 4), 1 day (24 hours) elapsed: 20 mg/ml
[2] = Comparative test on solubility of amorphous acid addition salts (supersaturation method); conditions: room temperature, solubility of acid addition salt per se, not converted to free base; for solubility: water, thermodynamic from solid, Water solubility
[3] = Comparative test on precipitation stability in pH 6.8 buffer; format: physicochemical; conditions: 10 mg/ml in buffer solution of pH 6.8, stored at 37° C. for 24 hours
[4] = Comparative test on solid-phase stability (Karl Fischer, HPLC); format: physicochemical; conditions: for Total impurities (%), 1 month elapsed / Total impurities (%), Initial: HPLC area %; for Total impurities (%), 1 month elapsed / Moisture (%), 1 month elapsed: PE-bag, 75% RH, one month; for Moisture (%), 1 month elapsed / Moisture (%), Initial: Karl Fischer
[5] = Water solubility at room temperature of 1:1 co-crystals of the compound of the formula 1 with co-crystal formers; conditions: co-crystal at 1:1 molar ratio with compound of the formula 1

Row | Compound | Soil precipitation or not [3] | Concentration of degradation products (%), Initial [4] [%] | Total impurities (%), 1 month elapsed [4] [%] | Total impurities (%), Initial [4] [%] | Moisture (%), 1 month elapsed [4] [%] | Moisture (%), Initial [4] [%] | Water-solubility [5] [µg/mL] | also measured
1 | Cc1nc2c(O[C@H]3CCOc4cc(F)cc(F)c43)cc(C(=O)N(C)C)cc2[nH]1 | a homogenous solution was maintained | 0.04 | 0.06 | 0.06 | 0.1 | 0.1 |  | Concentration (%) of degradation product (compound of the formula 4), Initial [1]: 0.03%; Concentration (%) of degradation product (compound of the formula 4), 1 day (24 hours) elapsed [1]: 0.07%; solubility [2]: ≥ 50000 µg/mL; Concentration of degradation products (%), 1 month elapsed ([4]; 1 month): 0.04%
2 | O=S(=O)(O)c1cccc2c(S(=O)(=O)O)cccc12 [1.5-naphinalenedisulfonic acid] |  |  |  |  |  |  |  | Water solubility [2]: 2500 µg/mL
3 | Cc1nc2c(OC3CCOc4cc(F)cc(F)c43)cc(C(=O)N(C)C)cc2[nH]1 (centres unmarked) [Amorphous free base] |  |  |  |  |  |  |  | solubility [2]: 3000 µg/mL
4 | C[C@H](N)C(=O)O [L-Alanine] |  |  |  |  |  |  | 4000 | 
5 | NCCCC[C@H](N)C(=O)O [L-Lysine] |  |  |  |  |  |  | 8000 | 
6 | CC(C)[C@H](N)C(=O)O [L-Valine] |  |  |  |  |  |  | 3000 | 
7 | CC(C)C[C@H](N)C(=O)O [L-leucine] |  |  |  |  |  |  | 12000 | 
8 | O=C1CC[C@@H](C(=O)O)N1 [L-pyroglutamic acid] | a homogenous solution was maintained | 0.02 | 0.07 | 0.07 | 0.1 | 0.1 |  | Concentration (%) of degradation product (compound of the formula 4), Initial [1]: 0.02%; Concentration (%) of degradation product (compound of the formula 4), 1 day (24 hours) elapsed [1]: 0.05%; Concentration of degradation products (%), 1 month elapsed ([4]; 1 month): 0.02%
9 | Cc1ccc(S(=O)(=O)O)cc1 [p-toluenesulfonic acid] |  |  |  |  |  |  |  | Water solubility [2]: 27000 µg/mL
10 | Fumaric acid | Precipitated | 0.09 | 0.43 | 0.14 | 0.3 | 0.1 |  | physical state of the solution (homogenous liquid-phase state or gel) ([1]; 20 mg/ml in purified water, stirred at 40° C.): formed a sticky gel; Soil precipitation or not ([3]; listed as fumaric acid): a solid was precipitated; Concentration of degradation products (%), 1 month elapsed [4]: 0.12%
